Columns and labels:
SOD1 G93A mice = assay: Efficacy study (survival) in SOD1 G93A mouse model of ALS; assay type: in vivo; settings: compared to vehicle, Edaravone and Riluzole, survival = neurological score below 4, FIG. 2
Experimental: All experiments were approved by the Danish Animal Experiment Inspectorate (2017-15-0202-00088) and followed the National and European guidelines for conducting animal experiments. Animal experiments was conducted according to the ARRIVE guidelines. Mice were housed in IVC cages in a high barrier facility at Aalborg University, Denmark with a room temperature of 21° C. The mice were kept at a 12-hour light/dark cycle and had ad libitum access to food and water.
B6.Cg-Tg(SOD1*G93A)1Gur/J mice (Stock #004435) (SOD1) were purchased from Jackson Laboratory (Bar Harbor, USA). The congenic SOD1 mice were maintained in our animal facility by crossing hemizygote SOD1 male mice with female C57BI/6J mice. Litters were genotyped according to established protocol using DNA extracted from ear tissue punches. Male SOD1 mice were used to maintain the colony, and SOD1 female and their wildtype littermates were used for experiments. All animals were assessed for human endpoints daily, weight twice a week, and neurological score once a week. SOD1 females (n=4) were evaluated at baseline and day 128 for cylinder, dark-light and y-maze tests, and at baseline and day 142 by neurological score, grip strength, hangwire test and rotarod. […] In addition, survival was evaluated as described under neurological score, onset of disease and survival analysis.
Mice were evaluated by the same experimenter weekly. […]

HEK293 cells = assay: Fatty acid uptake assay using HEK293 cells; assay type: cell-based; settings: Homo sapiens, CPT1 inhibitor, racemic mixture, FIG. 1
Experimental: HEK293 cells were thawed and centrifuged at 400 g in 1 min, whereafter the supernatant was discarded. The cells were resuspended in DMEM+GlutaMax medium (cat #10566016, Invitrogen) containing 10% fetal calf serum (cat #10270-106, Invitrogen) and 1% penicillin/streptomycin (cat #15140-122, Life Technologies). HEK293 cells were seeded into a T25 flask and incubated at 37 degrees Celsius until 80% confluency. When the HEK293 cells reached confluency, cells were counted and seeded in a 96-well plate and with a volume of 10.000 cells/well in medium (as described above) and incubated overnight. Three wells were without cells serving as controls.
The cells were divided into two groups: 1) Example 1, and 2) Untreated. The fatty acid uptake assay (cat #408-100, BioVision) was carried out according to the protocol from BioVision. The only exception to the protocol was that the measurements in the PerkinElmer Multimode Plate Reader Enspire instrument was running overnight.
Statistics was performed in GraphPad Prism version 8.0. Repeated measure two-way ANOVA were conducted as the groups were tested multiple times followed by a multiple comparison Bonferroni post hoc test.

CC(=O)N1CCC(c2nc(-c3ccncc3)cs2)N(C(=O)COc2ccccc2)CC1 (single isomer, unassigned) [Example 1-E2]
survival (SOD1 G93A mice): improved survival

CC(=O)N1CCC(c2nc(-c3ccncc3)cs2)N(C(=O)COc2ccccc2)CC1 (single isomer, unassigned) [Example 1-E1]
survival (SOD1 G93A mice): improved survival

CC(=O)N1CCC(c2nc(-c3ccncc3)cs2)N(C(=O)COc2ccccc2)CC1 (single isomer, unassigned) [Example 1, 1-(4-acetyl-7-(4-(pyridin-4-yl)thiazol-2-yl)-1,4-diazepan-1-yl)-2-phenoxyethan-1-one]
IC50 (HEK293 cells): 300 nM
